37 compounds from US8618151B2, “Inhibitors of HCV NS5A” (Presidio Pharmaceuticals, Inc., priority 2008, dated 2013) can be followed below.

A value given as a limit tells only on which side of the number the result lay.

The assay relates to HCV genotype 1b replicon. Briefly: HCV replicon assay (1b_Huh-Luc/Neo-ET cell line, luciferase readout). Type of assay: cell-based. To be noted: Hepatitis C virus, Huh-7, 72 h, read-out: Inhibition of HCV genotype 1b. The procedure:
Biological activity of the compounds of the invention was determined using an HCV replicon assay. The 1b_Huh-Luc/Neo-ET cell line persistently expressing a bicistronic genotype 1b replicon in Huh 7 cells was obtained from ReBLikon GMBH. This cell line was used to test compound inhibition using luciferase enzyme activity readout as a measurement of compound inhibition of replicon levels.
On Day 1 (the day after plating), each compound is added in triplicate to the cells. Plates incubated for 72 h prior to running the luciferase assay. Enzyme activity was measured using a Bright-Glo Kit (cat. number E2620) manufactured by Promega Corporation. The following equation was used to generate a percent control value for each compound. % Control=(Average Compound Value/Average Control)*100
The EC50 value was determined using GraphPad Prism and the following equation: Y=Bottom+(Top−Bottom)/1+10^((Log IC50−X)*HillSlope))
EC50 values of compounds are repeated several times in the replicon assay.
In general terms: A replicon is a self-replicating genome or part of one, used to study replication in cells.
On to `CNC(=O)N[C@@H](C(=O)N1CCC[C@H]1c1nc(-c2ccc3cc(-c4ccc(-c5cnc([C@@H]6CCCN6C(=O)[C@@H](NC(=O)OC)C(C)C)[nH]5)cc4)ccc3c2)c[nH]1)c1ccccc1` [14s], for which the EC50 was less than 1 nM. Next, `COC(=O)N[C@H](C(=O)N1CCC[C@H]1c1ncc(-c2ccc(-c3ccc4cc(-c5c[nH]c([C@@H]6CCCN6C(=O)[C@@H](c6ccccc6)N6CCCC6)n5)ccc4c3)cc2)[nH]1)C(C)C` [Compound 9]: less than 1 nM; `CNC(=O)N[C@@H](C(=O)N1CCC[C@H]1c1ncc(-c2ccc(-c3ccc4cc(-c5c[nH]c([C@@H]6CCCN6C(=O)[C@@H](NC(=O)OC)C(C)C)n5)ccc4c3)cc2)[nH]1)c1ccccc1` [Compound 18]: less than 1 nM. Next, `COC(=O)N[C@H](C(=O)N1CCC[C@H]1c1nc(-c2ccc3cc(-c4ccc(-c5cnc([C@@H]6CCCN6C(=O)[C@@H](NC(=O)OC)C(C)C)[nH]5)cc4)ccc3c2)c[nH]1)C(C)C` [compound 1]: less than 1 nM; `COC(=O)N[C@@H](C(=O)N1CCC[C@H]1c1nc(-c2ccc3cc(-c4ccc(-c5cnc([C@@H]6CCCN6C(=O)[C@H](NC(=O)OC)C(C)C)[nH]5)cc4)ccc3c2)c[nH]1)C(C)C` [compound 2]: less than 1 nM; `COC(=O)N[C@H](C(=O)N1CCC[C@H]1c1nc(-c2ccc3cc(-c4ccc(-c5cnc([C@@H]6CCCN6C(=O)[C@@H](NC(=O)OC)[C@@H](C)OC)[nH]5)cc4)ccc3c2)c[nH]1)[C@@H](C)OC` [compound 3]: less than 1 nM. Next, `COC(=O)N[C@H](C(=O)N1CCC[C@H]1c1nc(-c2ccc3cc(-c4ccc(-c5cnc([C@@H]6CCCN6C(=O)[C@@H](NC(=O)OC)[C@@H](C)O)[nH]5)cc4)ccc3c2)c[nH]1)[C@@H](C)O` [compound 4]: less than 1 nM; `COC(=O)N[C@H](C(=O)N1CCC[C@H]1c1nc(-c2ccc3cc(-c4ccc(-c5cnc([C@@H]6CCCN6C(=O)[C@@H](c6ccccc6)N(C)C)[nH]5)cc4)ccc3c2)c[nH]1)C(C)C` [compound 5]: less than 1 nM; `COC(=O)N[C@H](C(=O)N1CCC[C@H]1c1ncc(-c2ccc(-c3ccc4cc(-c5c[nH]c([C@@H]6CCCN6C(=O)[C@@H](c6ccccc6)N(C)C)n5)ccc4c3)cc2)[nH]1)C(C)C` [compound 6]: less than 1 nM.

`COC(=O)N[C@H](C(=O)N1CCC[C@H]1c1ncc(-c2ccc(-c3ccc4cc(-c5c[nH]c([C@@H]6CCCN6C(=O)[C@H](NC(=O)OC)c6ccccc6)n5)ccc4c3)cc2)[nH]1)C(C)C` [compound 7]: the EC50 was less than 1 nM.

In the case of `COC(=O)N[C@H](C(=O)N1CCC[C@H]1c1nc(-c2ccc3cc(-c4ccc(-c5cnc([C@@H]6CCCN6C(=O)[C@H](NC(=O)OC)c6ccccc6)[nH]5)cc4)ccc3c2)c[nH]1)C(C)C` [compound 8], the EC50 was less than 1 nM. Next, `COC(=O)N[C@H](C(=O)N1CCC[C@H]1c1nc(-c2ccc3cc(-c4ccc(-c5cnc([C@@H]6CCCN6C(=O)[C@@H](c6ccccc6)N6CCCC6)[nH]5)cc4)ccc3c2)c[nH]1)C(C)C` [compound 10]: less than 1 nM; `COC(=O)N[C@H](C(=O)N1CCC[C@H]1c1nc(-c2ccc3nc(-c4ccc(-c5cnc([C@@H]6CCCN6C(=O)[C@@H](NC(=O)OC)C(C)C)[nH]5)cc4)cnc3c2)c[nH]1)C(C)C` [compound 11]: less than 1 nM; `COC(=O)N[C@H](C(=O)N1CCC[C@H]1c1ncc(-c2ccc(-c3cnc4ccc(-c5cnc([C@@H]6CCCN6C(=O)[C@@H](NC(=O)OC)C(C)C)[nH]5)cc4n3)cc2)[nH]1)C(C)C` [compound 12]: 1 to 9.9 nM.

Take `COC(=O)N[C@H](C(=O)N1CCC[C@H]1c1nc(-c2ccc3cc(-c4ccc(-c5cnc([C@@H]6CCCN6C(=O)[C@@H](NC(=O)OC)C(C)C)[nH]5)cn4)ccc3c2)c[nH]1)C(C)C` [compound 13]: the EC50 is less than 1 nM.

Regarding `COC(=O)N[C@H](C(=O)N1CCC[C@H]1c1ncc(-c2ccc(-c3ccc4cc(-c5c[nH]c([C@@H]6CCCN6C(=O)[C@H](NC(=O)N6CC[C@H](O)C6)c6ccccc6)n5)ccc4c3)cc2)[nH]1)C(C)C` [compound 15], the EC50 is less than 1 nM.

As for `COC(=O)N[C@H](C(=O)N1CCC[C@H]1c1nc(-c2ccc3cc(-c4ccc(-c5cnc([C@@H]6CCCN6C(=O)[C@H](NC(=O)N6CC[C@H](O)C6)c6ccccc6)[nH]5)cc4)ccc3c2)c[nH]1)C(C)C` [compound 16], the EC50 was less than 1 nM. Turning to `COC(=O)N[C@H](C(=O)N1CCC[C@H]1c1nc(-c2ccc3nc(-c4ccc(-c5cnc([C@@H]6CCCN6C(=O)[C@@H](NC(=O)OC)C(C)C)[nH]5)cc4)ncc3c2)c[nH]1)C(C)C` [compound 17], the EC50 is less than 1 nM.

With `COC(=O)N[C@H](C(=O)N1CCC[C@H]1c1nc(-c2cnc3cc(-c4ccc(-c5cnc([C@@H]6CCCN6C(=O)[C@@H](NC(=O)OC)C(C)C)[nH]5)cc4)ccc3c2)c[nH]1)C(C)C` [compound 19], the EC50 was less than 1 nM.

With `COC(=O)N[C@H](C(=O)N1CCC[C@H]1c1ncc(-c2ccc(-c3cccc4c(-c5cnc([C@@H]6CCCN6C(=O)[C@@H](NC(=O)OC)C(C)C)[nH]5)cccc34)cc2)[nH]1)C(C)C` [compound 20], the EC50 is less than 1 nM. Next, `COC(=O)N[C@H](C(=O)N1CCC[C@H]1c1nc(-c2ccc3cc(-c4ccc(-c5cnc([C@@H]6CCCN6C(=O)[C@@H](NC(=O)OC)C(C)C)[nH]5)cc4)cnc3c2)c[nH]1)C(C)C` [compound 21]: less than 1 nM. Next, `COC(=O)N[C@H](C(=O)N1CCC[C@H]1c1nc(-c2ccc3cc(-c4ccc(-c5cnc([C@@H]6CCCN6C(=O)[C@@H](NC(=O)OC)C(C)C)[nH]5)cc4)ncc3c2)c[nH]1)C(C)C` [compound 22]: less than 1 nM; `COC(=O)N[C@H](C(=O)N1CCC[C@H]1c1ncc(-c2ccc(-c3ccc4cc(-c5c[nH]c([C@@H]6CCCN6C(=O)[C@H](NC(=O)NC(C)(C)C)c6ccccc6)n5)ccc4c3)cc2)[nH]1)C(C)C` [compound 23]: less than 1 nM; `COC(=O)N[C@H](C(=O)N1CCC[C@H]1c1nc(-c2ccc3cc(-c4ccc(-c5cnc([C@@H]6CCCN6C(=O)[C@H](NC(=O)NC6CC6)c6ccccc6)[nH]5)cc4)ccc3c2)c[nH]1)C(C)C` [compound 24]: less than 1 nM. For the compound `COC(=O)NC(C(=O)N1CCC[C@H]1c1nc(-c2ccc3cc(-c4ccc(-c5cnc([C@@H]6CCCN6C(=O)[C@H](NC(=O)NC(C)(C)C)c6ccccc6)[nH]5)cc4)ccc3c2)c[nH]1)C(C)C` (stereo partly shown) [compound 25], the EC50 is less than 1 nM. Next, `COC(=O)N[C@H](C(=O)N1CCC[C@H]1c1nc(-c2ccc3nc(-c4ccc(-c5cnc([C@@H]6CCCN6C(=O)[C@H](NC(=O)OC)c6ccccc6)[nH]5)cc4)ccc3c2)c[nH]1)C(C)C` [compound 26]: less than 1 nM; `CCNC(=O)N[C@@H](C(=O)N1CCC[C@H]1c1ncc(-c2ccc(-c3ccc4cc(-c5c[nH]c([C@@H]6CCCN6C(=O)[C@@H](NC(=O)OC)C(C)C)n5)ccc4c3)cc2)[nH]1)c1ccccc1` [compound 27]: less than 1 nM.

For the compound `CCNC(=O)N[C@@H](C(=O)N1CCC[C@H]1c1nc(-c2ccc3cc(-c4ccc(-c5cnc([C@@H]6CCCN6C(=O)[C@@H](NC(=O)OC)C(C)C)[nH]5)cc4)ccc3c2)c[nH]1)c1ccccc1` [compound 28], the EC50 is less than 1 nM. The figure for `COC(=O)N[C@H](C(=O)N1CCC[C@H]1c1ncc(-c2ccc(-c3ccc4cc(-c5c[nH]c([C@@H]6CCCN6C(=O)[C@H](NC(=O)NC6CC6)c6ccccc6)n5)ccc4c3)cc2)[nH]1)C(C)C` [compound 29] is less than 1 nM.

As for `COC(=O)N[C@H](C(=O)N1CCC[C@H]1c1nc(-c2ccc3nc(-c4ccc(-c5cnc([C@@H]6CCCN6C(=O)[C@H](NC(=O)OC(C)(C)C)c6ccccc6)[nH]5)cc4)ccc3c2)c[nH]1)C(C)C` [compound 30], the EC50 was less than 1 nM. The figure for `CNC(=O)N[C@@H](C(=O)N1CCC[C@H]1c1ncc(-c2ccc(-c3ccc4cc(-c5c[nH]c([C@@H]6CCCN6C(=O)[C@@H](NC(=O)OC)C(C)C)n5)ccc4n3)cc2)[nH]1)c1ccccc1` [compound 31] is less than 1 nM. Consider `COC(=O)N[C@H](C(=O)N1CCC[C@H]1c1nc(-c2cnc3cc(-c4ccc(-c5cnc([C@@H]6CCCN6C(=O)[C@H](NC(=O)OC)c6ccccc6)[nH]5)cc4)ccc3c2)c[nH]1)C(C)C` [compound 32], for which the EC50 was less than 1 nM. The figure for `CCNC(=O)N[C@@H](C(=O)N1CCC[C@H]1c1ncc(-c2ccc(-c3ccc4cc(-c5c[nH]c([C@@H]6CCCN6C(=O)[C@@H](NC(=O)OC)C(C)C)n5)ccc4n3)cc2)[nH]1)c1ccccc1` [compound 33] is less than 1 nM. The figure for `COC(=O)N[C@H](C(=O)N1CCC[C@H]1c1nc(-c2ccc3nc(-c4ccc(-c5cnc([C@@H]6CCCN6C(=O)[C@H](NC(=O)NC6CC6)c6ccccc6)[nH]5)cc4)ccc3c2)c[nH]1)C(C)C` [compound 34] is less than 1 nM; for `COC(=O)N[C@H](C(=O)N1CCC[C@H]1c1ncc(-c2ccc(-c3ccc4cc(-c5c[nH]c([C@@H]6CCCN6C(=O)[C@H](NC(=O)OC(C)(C)C)c6ccccc6)n5)ccc4n3)cc2)[nH]1)C(C)C` [compound 35] it is less than 1 nM. Take `CNC(=O)N[C@@H](C(=O)N1CCC[C@H]1c1nc(-c2ccc3nc(-c4ccc(-c5cnc([C@@H]6CCCN6C(=O)[C@@H](NC(=O)OC)C(C)C)[nH]5)cc4)ccc3c2)c[nH]1)c1ccccc1` [compound 36]: the EC50 was less than 1 nM. Next, `CCNC(=O)N[C@@H](C(=O)N1CCC[C@H]1c1nc(-c2ccc3nc(-c4ccc(-c5cnc([C@@H]6CCCN6C(=O)[C@@H](NC(=O)OC)C(C)C)[nH]5)cc4)ccc3c2)c[nH]1)c1ccccc1` [compound 37]: less than 1 nM.
